# US11820773B2, “Tricyclic compounds” (ALIGOS THERAPEUTICS, INC., priority 2020, dated 2023)
# pEC50: −log10 of the molar value.
# Tested on: HBV
# Test: HBV-DNA antiviral assay using HepG2.117 cells (intracellular HBV DNA by qPCR)
# Format: cell-based, genotype D HBV
# Details: HBV DNA inhibition, 3 days incubation, 2% DMSO
# In short: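 Endpoints are intracellular HBV DNA by qPCR (interpolated from a gBlock standard curve) and ATP-based viability in duplicate plates. Doxycycline-free HepG2.117 Tet-off cells received compounds (9 concentrations, 4-fold steps, 2% DMSO) for 3 days. Inhibition normalised to DMSO wells; EC50/EC90/CC50 by curve fitting.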
row,SMILES,pEC50
1,"CNC(=O)c1ccc(-n2c(=O)c3c(n4ncc(Cc5ccccc5)c24)CN(C(=O)c2ccc(Br)c(C(F)(F)F)c2)CC3)cc1 [Compound 4, 4-[5-benzyl-12-[4-bromo-3-(trifluoromethyl)benzoyl]-8-oxo-2,3,7,12-tetrazacyclo[7.4.0.0^2,6]trideca-1(9),3,5-trien-7-yl]-N-methyl-benzamide]",> 7.30
2,"CNc1onc2cc(-n3c(=O)c4c(n5ncc(Cc6ccccc6)c35)CN(C(=O)c3ccc(Br)c(Cl)c3)CC4)ccc12 [Compound 6, 5-benzyl-12-(4-bromo-3-chloro-benzoyl)-7-[3-(methylamino)-2,1-benzoxazol-6-yl]-2,3,7,12-tetrazatricyclo[7.4.0.0^2,6]trideca-1(9),3,5-trien-8-one]",> 7.30

# Same assay, conditions: Hepatitis B virus, 72 h, HBV DNA inhibition, 3 days incubation, 2% DMSO
row,SMILES,pEC50
1,"Cc1cnn(-c2ccc(-n3c(=O)c4c(n5ncc(CC(C)C)c35)CN(C(=O)c3ccc(Br)c(C(F)(F)F)c3)[C@@H](C)C4)cc2)n1 (stereo in doubt) [Compound 99b, rac-(11S)-12-[4-bromo-3-(trifluoromethyl)benzoyl]-5-isobutyl-11-methyl-7-[4-(4-methyltriazol-2-yl)phenyl]-2,3,7,12-tetrazatricyclo[7.4.0.0^2,6]trideca-1(9),3,5-trien-8-one]",5.30 to 6.30
2,"Cc1ccn(-c2ccc(-n3c(=O)c4c(n5ncc(CC(C)C)c35)CN(C(=O)c3ccc(Br)c(C(F)(F)F)c3)[C@H](C)C4)cc2)n1 (stereo in doubt) [Compound 100a, rac-(11R)-12-[4-bromo-3-(trifluoromethyl)benzoyl]-5-isobutyl-11-methyl-7-[4-(3-methylpyrazol-1-yl)phenyl]-2,3,7,12-tetrazatricyclo[7.4.0.0^2,6]trideca-1(9),3,5-trien-8-one]",> 7.30
3,"Cc1ccn(-c2ccc(-n3c(=O)c4c(n5ncc(CC(C)C)c35)CN(C(=O)c3ccc(Br)c(C(F)(F)F)c3)[C@@H](C)C4)cc2)n1 (stereo in doubt) [Compound 100b, rac-(11S)-12-[4-bromo-3-(trifluoromethyl)benzoyl]-5-isobutyl-11-methyl-7-[4-(3-methylpyrazol-1-yl)phenyl]-2,3,7,12-tetrazatricyclo[7.4.0.0^2,6]trideca-1(9),3,5-trien-8-one]",5.30 to 6.30
4,"C[C@@H]1Cc2c(n3ncc(CC4CC4)c3n(-c3ccc(C(=O)N(C)CO)cc3)c2=O)CN1C(=O)c1ccc(Br)c(C(F)(F)F)c1 (stereo in doubt) [Compound 101, N-(hydroxymethyl)-N-methyl-4-[rac-(11R)-12-[4-bromo-3-(trifluoromethyl)benzoyl]-5-(cyclopropylmethyl)-11-methyl-8-oxo-2,3,7,12-tetrazatricyclo[7.4.0.0^2,6]trideca-1(9),3,5-trien-7-yl]benzamide]",6.30 to 7.30
5,"CC(C)Cc1cnn2c3c(c(=O)n(-c4ccc(-c5cnnn5C)cc4)c12)C[C@@H](C)N(C(=O)c1ccc(Br)c(C(F)(F)F)c1)C3 (stereo in doubt) [Compound 102a, rac-(11R)-12-[4-bromo-3-(trifluoromethyl)benzoyl]-5-isobutyl-11-methyl-7-[4-(3-methyltriazol-4-yl)phenyl]-2,3,7,12-tetrazatricyclo[7.4.0.0^2,6]trideca-1(9),3,5-trien-8-one]",> 7.30
6,"CC(C)Cc1cnn2c3c(c(=O)n(-c4ccc(-c5cnnn5C)cc4)c12)C[C@H](C)N(C(=O)c1ccc(Br)c(C(F)(F)F)c1)C3 (stereo in doubt) [Compound 102b, rac-(11S)-12-[4-bromo-3-(trifluoromethyl)benzoyl]-5-isobutyl-11-methyl-7-[4-(3-methyltriazol-4-yl)phenyl]-2,3,7,12-tetrazatricyclo[7.4.0.0^2,6]trideca-1(9),3,5-trien-8-one]",6.30 to 7.30
7,"CNC(=O)c1ccc(-n2c(=O)c3c(n4ncc(Cc5ccccc5)c24)CN(C(=O)c2ccc(Br)c(C(F)(F)F)c2)[C@@H](C2CC2)C3)cc1 (stereo in doubt) [Compound 104a, N-methyl-4-[rac-(11R)-5-benzyl-12-[4-bromo-3-(trifluoromethyl)benzoyl]-11-cyclopropyl-8-oxo-2,3,7,12-tetrazatricyclo[7.4.0.0^2,6]trideca-1(9),3,5-trien-7-yl]benzamide]",> 7.30
8,"CNC(=O)c1ccc(-n2c(=O)c3c(n4ncc(Cc5ccccc5)c24)CN(C(=O)c2ccc(Br)c(C(F)(F)F)c2)[C@H](C2CC2)C3)cc1 (stereo in doubt) [Compound 104b, N-methyl-4-[rac-(11S)-5-benzyl-12-[4-bromo-3-(trifluoromethyl)benzoyl]-11-cyclopropyl-8-oxo-2,3,7,12-tetrazatricyclo[7.4.0.0^2,6]trideca-1 (9),3,5-trien-7-yl]benzamide]",> 7.30
9,"C[C@@H]1Cc2c(n3ncc(Cc4ccccc4)c3n(-c3ccc(-c4cnnn4C)cc3)c2=O)CN1C(=O)c1ccc(Br)c(C(F)(F)F)c1 (stereo in doubt) [Compound 105a, rac-(11R)-5-benzyl-12-[4-bromo-3-(trifluoromethyl)benzoyl]-11-methyl-7-[4-(3-methyltriazol-4-yl)phenyl]-2,3,7,12-tetrazatricyclo[7.4.0.0^2,6]trideca-1(9),3,5-trien-8-one]",> 7.30
10,"C[C@H]1Cc2c(n3ncc(Cc4ccccc4)c3n(-c3ccc(-c4cnnn4C)cc3)c2=O)CN1C(=O)c1ccc(Br)c(C(F)(F)F)c1 (stereo in doubt) [Compound 105b, rac-(11S)-5-benzyl-12-[4-bromo-3-(trifluoromethyl)benzoyl]-11-methyl-7-[4-(3-methyltriazol-4-yl)phenyl]-2,3,7,12-tetrazatricyclo[7.4.0.0^2,6]trideca-1(9),3,5-trien-8-one]",6.30 to 7.30
11,"CC(C)Cc1cnn2c3c(c(=O)n(-c4ccc5c(c4)nnn5CCO)c12)C[C@@H](C)N(C(=O)c1ccc(Br)c(C(F)(F)F)c1)C3 (stereo in doubt) [Compound 108a, rac-(11R)-12-[4-bromo-3-(trifluoromethyl)benzoyl]-7-[1-(2-hydroxyethyl)benzotriazol-5-yl]-5-isobutyl-11-methyl-2,3,7,12-tetrazatricyclo[7.4.0.0^2,6]trideca-1(9),3,5-trien-8-one]",> 7.30
12,"CC(C)Cc1cnn2c3c(c(=O)n(-c4ccc5c(c4)nnn5CCO)c12)C[C@H](C)N(C(=O)c1ccc(Br)c(C(F)(F)F)c1)C3 (stereo in doubt) [Compound 108b, rac-(11S)-12-[4-bromo-3-(trifluoromethyl)benzoyl]-7-[1-(2-hydroxyethyl)benzotriazol-5-yl]-5-isobutyl-11-methyl-2,3,7,12-tetrazatricyclo[7.4.0.0^2,6]trideca-1(9),3,5-trien-8-one]",6.30 to 7.30
13,"CNC(=O)c1ccc(-n2c(=O)c3c(n4ncc(Cc5ccccc5)c24)CN(C(=O)c2ccc(Br)c(C(F)(F)F)c2)[C@H](C)C3)nc1 (stereo in doubt) [Compound 109a, N-methyl-6-[rac-(11R)-5-benzyl-12-[4-bromo-3-(trifluoromethyl)benzoyl]-11-methyl-8-oxo-2,3,7,12-tetrazatricyclo[7.4.0.0^2,6]trideca-1(9),3,5-trien-7-yl]pyridine-3-carboxamide]",6.30 to 7.30
14,"CNC(=O)c1ccc(-n2c(=O)c3c(n4ncc(Cc5ccccc5)c24)CN(C(=O)c2ccc(Br)c(C(F)(F)F)c2)[C@@H](C)C3)nc1 (stereo in doubt) [Compound 109b, N-methyl-6-[rac-(11S)-5-benzyl-12-[4-bromo-3-(trifluoromethyl)benzoyl]-11-methyl-8-oxo-2,3,7,12-tetrazatricyclo[7.4.0.0^2,6]trideca-1(9),3,5-trien-7-yl]pyridine-3-carboxamide]",> 7.30
15,"Cc1nnc(-c2ccc(-n3c(=O)c4c(n5ncc(Cc6ccccc6)c35)CN(C(=O)c3ccc(Br)c(Cl)c3)CC4)cc2)[nH]1 [Compound 1, 5-benzyl-12-(4-bromo-3-chloro-benzoyl)-7-[4-(5-methyl-4H-1,2,4-triazol-3-yl)phenyl]-2,3,7,12-tetrazatricyclo[7.4.0.0^2,6]trideca-1(9),3,5-trien-8-one]",> 7.30
16,"CNC(=O)c1ccc(-n2c(=O)c3c(n4ncc(Cc5ccccc5)c24)CN(C(=O)c2ccc(Br)c(C)c2)CC3)cc1 [Compound 2, 4-[5-benzyl-12-(4-bromo-3-methyl-benzoyl)-8-oxo-2,3,7,12-tetrazatricyclo[7.4.0.0″2,6]trideca-1(9),3,5-trien-7-yl]-N-methyl-benzamide]",> 7.30
17,"CNC(=O)c1ccc(-n2c(=O)c3c(n4ncc(Cc5ccccc5)c24)CN(C(=O)c2ccc(Br)c(C(F)F)c2)CC3)cc1 [Compound 3, 4-[5-benzyl-12-[4-bromo-3-(difluoromethyl)benzoyl]-8-oxo-2,3,7,12-tetrazatricyclo[7.4.0.0^2,6]trideca-1(9),3,5-trien-7-yl]-N-methyl-benzamide]",> 7.30
18,"CNc1nsc2cc(-n3c(=O)c4c(n5ncc(Cc6ccccc6)c35)CN(C(=O)c3ccc(Br)c(Cl)c3)CC4)ccc12 [Compound 5, 5-benzyl-12-(4-bromo-3-chloro-benzoyl)-7-[3-(methylamino)-1,2-benzothiazol-6-yl]-2,3,7,12-tetrazatricyclo[7.4.0.0^2,6]trideca-1(9),3,5-trien-8-one]",> 7.30
19,"Cc1cnn(-c2ccc(-n3c(=O)c4c(n5ncc(Cc6ccccc6)c35)CN(C(=O)c3ccc(Br)c(Cl)c3)CC4)cc2)c1 [Compound 7, 5-benzyl-12-(4-bromo-3-chloro-benzoyl)-7-[4-(4-methylpyrazol-1-yl)phenyl]-2,3,7,12-tetrazatricyclo[7.4.0.0^2,6]trideca-1(9),3,5-trien-8-one]",> 7.30
20,"Cn1nnnc1-c1ccc(-n2c(=O)c3c(n4ncc(Cc5ccccc5)c24)CN(C(=O)c2ccc(Br)c(Cl)c2)CC3)cc1 [Compound 8, 5-benzyl-12-(4-bromo-3-chloro-benzoyl)-7-[4-(1-methyltetrazol-5-yl)phenyl]-2,3,7,12-tetrazatricyclo[7.4.0.0^2,6]trideca-1(9),3,5-trien-8-one]",> 7.30
